Assay results taken from PubChem BioAssay (NCI).
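Exposure lasted 48 hours, with cells grown in 96-well plates and compounds tested at five concentrations. TGI marks complete inhibition of growth.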

What was measured:
Experiment in all cases: NCI anticancer screen, dose series, 48 h
[1] = tested on: TK-10 renal
[2] = tested on: M14 melanoma
[3] = tested on: SF-268 CNS
[4] = tested on: MALME-3M melanoma
[5] = tested on: LOX IMVI melanoma
[6] = tested on: SN12C renal
[7] = tested on: HOP-62 NSCLC
[8] = tested on: CAKI-1 renal
[9] = tested on: MDA-N
[10] = tested on: SF-539 CNS
[11] = tested on: HS 578T breast
[12] = tested on: NCI-H460 lung
[13] = tested on: HL-60(TB) leukemia
[14] = tested on: COLO 205 colon
[15] = tested on: SK-MEL-28 melanoma
[16] = tested on: SNB-75 CNS
[17] = tested on: SK-OV-3 ovarian
[18] = tested on: HCT-15 colon
[19] = tested on: SNB-19 CNS
[20] = tested on: RPMI-8226 leukemia
[21] = tested on: BT-549 breast
[22] = tested on: UACC-62 melanoma
[23] = tested on: U251 CNS
[24] = tested on: A549 NSCLC
[25] = tested on: SK-MEL-2 melanoma
[26] = tested on: OVCAR-8 ovarian
[27] = tested on: DU-145 prostate
[28] = tested on: SK-MEL-5 melanoma
[29] = tested on: NCI-H23 lung
[30] = tested on: HCT-116 colon
[31] = tested on: SF-295 CNS
[32] = tested on: UACC-257 melanoma
[33] = tested on: IGROV1 ovarian
[34] = tested on: MDA-MB-435
[35] = tested on: UO-31 renal
[36] = tested on: SW-620 colon
[37] = tested on: PC-3 prostate
[38] = tested on: OVCAR-4 ovarian
[39] = tested on: SR leukemia
[40] = tested on: T-47D breast
[41] = tested on: A498 renal
[42] = tested on: OVCAR-3 ovarian
[43] = tested on: EKVX NSCLC
[44] = tested on: 786-0 renal
[45] = tested on: RXF 393 renal
[46] = tested on: HT29 colon
[47] = tested on: NCI/ADR-RES ovarian
[48] = tested on: CCRF-CEM leukemia
[49] = tested on: MDA-MB-231 breast
[50] = tested on: MCF7 breast
[51] = tested on: ACHN renal
[52] = tested on: OVCAR-5 ovarian
[53] = tested on: NCI-H522 lung
[54] = tested on: KM12 colon
[55] = tested on: MOLT-4 leukemia
[56] = tested on: NCI-H226 lung
[57] = tested on: K-562 leukemia
[58] = tested on: HCC-2998 colon
[59] = tested on: HOP-92 NSCLC

For `C/C(=N\Nc1nc2ccccc2s1)c1ccc2ccccc2n1`, the TGI [1] was > 100 µM, the TGI [2] was > 100 µM and the TGI [3] was > 100 µM. The TGI [4] was > 100 µM, the TGI [5] was > 100 µM and the TGI [6] was > 100 µM. For the same molecule, the TGI [7] was > 100 µM, the TGI [8] was > 100 µM and the TGI [9] was > 100 µM. The TGI [10] was > 100 µM, the TGI [11] was > 100 µM and the TGI [12] was > 100 µM. For the same molecule, the TGI [13] was 52.9 µM, the TGI [14] was > 100 µM and the TGI [15] was > 100 µM. For the same molecule, the TGI [16] was 97.2 µM, the TGI [17] was > 100 µM and the TGI [18] was > 100 µM. The TGI [19] was > 100 µM, the TGI [20] was 45.3 µM and the TGI [21] was > 100 µM. For the same molecule, the TGI [22] was > 100 µM, the TGI [23] was > 100 µM and the TGI [24] was > 100 µM. For the same molecule, the TGI [25] was > 100 µM, the TGI [26] was > 100 µM and the TGI [27] was > 100 µM. For the same molecule, the TGI [28] was > 100 µM, the TGI [29] was > 100 µM and the TGI [30] was > 100 µM. For the same molecule, the TGI [31] was > 100 µM, the TGI [32] was > 100 µM and the TGI [33] was 47.1 µM. The TGI [34] was > 100 µM, the TGI [35] was > 100 µM and the TGI [36] was > 100 µM. For the same molecule, the TGI [37] was > 100 µM, the TGI [38] was > 100 µM and the TGI [39] was 5.88 µM. For the same molecule, the TGI [40] was 53.5 µM, the TGI [41] was > 100 µM and the TGI [42] was > 100 µM. The TGI [43] was > 100 µM, the TGI [44] was > 100 µM and the TGI [45] was 73.3 µM. The TGI [46] was > 100 µM, the TGI [47] was > 100 µM and the TGI [48] was 63.7 µM. For the same molecule, the TGI [49] was > 100 µM, the TGI [50] was > 100 µM and the TGI [51] was > 100 µM. The TGI [52] was > 100 µM, the TGI [53] was > 100 µM and the TGI [54] was > 100 µM.
In the case of `COC1C(O)C(O[C@H]2CC[C@@]3(C)C(CC[C@@H]4[C@@H]3CC[C@]3(C)[C@@H](C(C)OC5OC(CO)C(O)C(O)C5O)CC[C@]43O)C2)OC(C)C1OC1OC(CO)C(O)C(O)C1O` (some centres not stated), the TGI [1] is reported as > 100 µM, the TGI [2] is reported as > 100 µM and the TGI [3] is reported as > 100 µM. The TGI [4] was > 100 µM, the TGI [5] was > 100 µM and the TGI [6] was > 100 µM. For the same molecule, the TGI [7] was > 100 µM, the TGI [8] was > 100 µM and the TGI [9] was > 100 µM. The TGI [10] was > 100 µM, the TGI [11] was > 100 µM and the TGI [12] was > 100 µM. The TGI [55] was > 100 µM, the TGI [14] was > 100 µM and the TGI [15] was > 100 µM. For the same molecule, the TGI [16] was > 100 µM, the TGI [17] was > 100 µM and the TGI [56] was > 100 µM. The TGI [18] was > 100 µM, the TGI [19] was > 100 µM and the TGI [20] was > 100 µM. For the same molecule, the TGI [21] was > 100 µM, the TGI [22] was > 100 µM and the TGI [23] was > 100 µM. For the same molecule, the TGI [24] was > 100 µM, the TGI [25] was > 100 µM and the TGI [26] was > 100 µM. For the same molecule, the TGI [27] was > 100 µM, the TGI [28] was > 100 µM and the TGI [29] was > 100 µM. For the same molecule, the TGI [30] was > 100 µM, the TGI [31] was > 100 µM and the TGI [32] was > 100 µM. The TGI [33] was > 100 µM, the TGI [34] was > 100 µM and the TGI [57] was > 100 µM. The TGI [35] was > 100 µM, the TGI [36] was > 100 µM and the TGI [37] was > 100 µM. The TGI [38] was > 100 µM, the TGI [58] was > 100 µM and the TGI [39] was > 100 µM. The TGI [40] was > 100 µM, the TGI [41] was > 100 µM and the TGI [42] was > 100 µM. The TGI [43] was > 100 µM, the TGI [44] was > 100 µM and the TGI [59] was > 100 µM. For the same molecule, the TGI [45] was > 100 µM, the TGI [46] was > 100 µM and the TGI [47] was > 100 µM. For the same molecule, the TGI [48] was > 100 µM, the TGI [49] was > 100 µM and the TGI [50] was > 100 µM. The TGI [51] was > 100 µM, the TGI [52] was > 100 µM and the TGI [53] was > 100 µM. The TGI [54] was > 100 µM.
